Measured values taken from PMC6767236, “Selective Cannabinoid 2 Receptor Agonists as Potential Therapeutic Drugs for the Treatment of Endotoxin-Induced Uveitis” (Molecules, 2019).
Read-outs that look alike come from different tables or passages of the source.

Columns and labels:
human CB2R = target: T1, human CB2R (Homo sapiens, UniProt P34972); test: cAMP assay, CHO cells expressing human CB2R; assay type: cell-based
T1 construct: bgal (beta-galactosidase fragment of the PathHunter system, named only in the cell line's name); host or cells: CHO-K1 (CHOK1hCB2_bgal)
Method: The effect of ligands on the forskolin-stimulated accumulation of cAMP was determined using the LANCE ULTRA cAMP kit as per the manufacturer’s instruction (Perkin-Elmer Life Sciences, Boston, MA, USA).
For human CB2R and CB1R, cAMP assays were performed using CHO cells stably expressing human CB2R or human CB1R (DiscoveRx, Fremont, CA, USA) using a cAMP-Nano-TRF detection kit (Roche Diagnostics, Penzberg, Germany). Cells were seeded 17–24 h prior to the experiment at a density of 3 × 10^4 cells per well in a black 96-well plate with clear flat bottom (Corning, Wiesbaden, Germany) and incubated in 5% CO2 at 37 °C in a humidified incubator. The growth medium was exchanged with Krebs Ringer bicarbonate buffer with 1 mmol/L 3-isobutyl-1-methylxanthine (IBMX), 0.1% fatty acid-free BSA and incubated at 30 °C for 60 min. Agonist was added to a final assay volume of 100 μL and the mixture was incubated for 30 min at 30 °C. The assay was stopped by the addition of 50 μL 3 × lysis reagent and shaken for 2 h at room temperature. The time-resolved fluorescence energy transfer was measured using an LF502 Nanoscan FLT (IOM, Berlin, Germany), equipped with a laser as excitation source. cAMP content was determined from the function of a standard curve spanning from 10 to 0.13 nmol/L cAMP. Efficacies are expressed as percent relative to 1 µM CP55940.

in vivo = conditions: for AUCINF D: mouse, i.v., HU308 2 mg/kg, RO6871304 0.5 mg/kg
Method: Mouse Pharmacokinetic Profiles
Male C57Bl/6 mice (Charles River, Fra nce) were used to study the pharmacokinetics of CB 2R ligands after i.v. and p.o. administration. Animals were up to 12 weeks of age. All animal studies in this section were performed at Hoffmann-La Roche and approved by the Federal Food Safety and Veterinary Office of the Swiss Confederation. Test compounds were formulated according to respective protocols either by dissolution (i.v.) or as aqueous suspensions in a glass potter until homogeneity was achieved (p.o.; formulated as a solution in ethanol/cremophor EL/ 0.9% NaCl (5%/5%/90%)). Formulations were injected i.v. using a 30G needle in the lateral tail vein of mice using a volume of 50 μL in the dose indicated. For p.o. applications, animals were gavaged using a volume of 100 μL in the dose indicated. At the following time points blood was drawn into EDTA: 0.08, 0.25, 0.5, 1, 2, 4, 7 h (for p.o. the first time point was omitted). Six animals were used for each compound.
Animals were distributed randomly over the time course and at each time point, a volume of 100 μL of blood was taken. Quantitative plasma measurement of the compound was performed by LC-MS/MS analysis. Pharmacokinetic analysis was performed using Phoenix WinNonlin 6.4 software using a non-compartmental approach consistent with the route of administration. For assessment of the exposure, Cmax, Tmax, and area under the curve (AUC) were determined from the serum concentration profiles. Parameters (clearance, […], T1/2) were estimated using nominal sampling times relative to the start of each administration. Co (initial concentration) was extrapolated from the first concentration measured following i.v. administration. […]

mouse CB2R [1] = target: T2, mouse CB2R (Mus musculus, UniProt P47936); test: biochemical; assay type: binding; parameters: bgal (beta-galactosidase fragment of the PathHunter system, named only in the cell line's name); host or cells: CHO-K1 (CHOK1mCB2_bgal)
Method: Membrane fractions were prepared from cultured CHOK1hCB1_bgal, CHOK1hCB2_bgal, and CHOK1mCB2_bgal cells (DiscoveRx, Fremont, CA, USA) as previously described. Protein concentration was determined using the Pierce bicinchoninic acid (BCA) protein assay (Rochford, IL, USA) as per the manufacturer’s instructions.
Radio ligand-binding assays were carried out as described by Souethoudt et al. (2018). Briefly, membranes from cells expressing human CB2R or CB1R or mouse CB2R and the radioligand, [^3H]-CP55940 (Perkin Elmer, Basel, Switzerland) was used. […] Membrane aliquots containing 5 µg (CHOK1hCB1_bgal) or 1 µg (CHOK1hCB2_bgal) of membrane protein in 100 µL assay buffer (50 mMTris-HCl, 5 mM MgCl2, 0.1% bovine serum albumin (BSA), pH 7.4) were incubated at 30 °C for 1 h, in presence of 3.5 nM of [^3H]-CP55940 (CHOK1hCB1_bgal) or 1.5 nM [^3H]-CP55940 (CHOK1hCB2_bgal). The incubation was terminated by rapid filtration performed on glass microfibre (GF/C) filters (Whatman International, Maidstone, UK), presoaked for 30 min with 0.25% polyethyleneimine (PEI), and using a Brandel harvester (Brandel, Gaithersburg, MD, USA). Filter-bound radioactivity was determined by scintillation spectrometry using a Tri-Carb 2900 TR liquid scintillation counter (Perkin Elmer, Boston, MA, USA). For mouse experiments, spleens were collected as previously described and resuspended in 2 mM Tris-EDTA, 320 mM sucrose, 5 mM MgCl2 (pH 7.4). Tissue was homogenized with a Potter homogenizer and centrifuged three times at 1000× g (10 min). The supernatants were centrifuged at 18,000× g (30 min), and the pellets were resuspended in assay buffer (50 mM Tris-HCl, 2 mM Tris-EDTA, 3 mM MgCl2, pH 7.4). These membrane fractions were used in rapid filtration assays with 400 pM of [^3H]-CP55,940. In all receptor binding experiments, nonspecific binding was determined in the presence of 1 µM “cold” agonist.

[2] = Octanol/water distribution coefficient (logD)
[3] = parameters: method as in earlier work; conditions: * previously published; cited from earlier work
mouse CB2R [4] = target: T2, mouse CB2R; parameters: bgal (beta-galactosidase fragment of the PathHunter system, named only in the cell line's name); host or cells: CHO-K1 (CHOK1mCB2_bgal); conditions: [3H]-CP55940 displacement; * previously published; cited from earlier work
[5] = male, C57Bl/6, mouse, in vivo, iv
[6] = [3H]-CP55940 displacement, read-out: mouse CB2R: Ki
[7] = species ratio of binding affinity
[8] = male, C57Bl/6, mouse, in vivo, iv, 2 mg/kg

T2 sequence (P47936 whole entry, the tested form may be a part): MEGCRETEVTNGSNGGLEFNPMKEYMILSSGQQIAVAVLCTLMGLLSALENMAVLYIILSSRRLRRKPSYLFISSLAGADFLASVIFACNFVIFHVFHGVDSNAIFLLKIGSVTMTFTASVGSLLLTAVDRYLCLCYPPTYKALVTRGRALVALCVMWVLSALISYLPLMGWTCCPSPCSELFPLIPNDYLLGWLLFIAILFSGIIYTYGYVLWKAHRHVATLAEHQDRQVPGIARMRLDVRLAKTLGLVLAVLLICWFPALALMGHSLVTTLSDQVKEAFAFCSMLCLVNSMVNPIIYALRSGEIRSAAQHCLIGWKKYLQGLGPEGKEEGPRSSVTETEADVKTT
T1 sequence (P34972 whole entry, the tested form may be a part): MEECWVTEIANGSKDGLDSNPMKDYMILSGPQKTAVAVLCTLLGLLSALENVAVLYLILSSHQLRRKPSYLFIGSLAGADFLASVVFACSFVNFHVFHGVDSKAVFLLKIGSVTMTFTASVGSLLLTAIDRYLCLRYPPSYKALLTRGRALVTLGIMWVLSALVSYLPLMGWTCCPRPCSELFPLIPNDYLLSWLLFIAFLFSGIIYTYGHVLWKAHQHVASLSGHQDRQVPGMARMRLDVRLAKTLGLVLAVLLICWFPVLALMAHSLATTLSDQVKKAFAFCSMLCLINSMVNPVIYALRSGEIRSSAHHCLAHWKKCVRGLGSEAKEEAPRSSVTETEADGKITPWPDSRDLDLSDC

Compound	half-life (in vivo; [5])	AUCINF D (in vivo)	Ki (mouse CB2R [1]; [6])	hCB2R Ki/mouse CB2R Ki (mouse CB2R [1]; [7])	Plasma Protein Binding: FREE Fraction mouse [3]	Ki (mouse CB2R [4])	other results
CC(C)(C)c1nc(N2CC[C@H](O)C2)c2nnn(Cc3nnnn3C3CC3)c2n1 [RO6871304, (3S)-1-{5-tert-butyl-3-[(1-cyclopropyl-1H-tetrazol-5-yl)methyl]-3H-[1,2, 3]triazolo[4,5-d]pyrimidin-7-yl}pyrrolidin-3-ol]	0.32 h	456 ng·kg·h/mL/mg	34 nM	0.5			hCB1R cAMP EC50/hCB2R cAMP EC50 (human CB2R; functional selectivity): >10,000
CCCCCCC(C)(C)c1cc(OC)c([C@H]2C=C(CO)[C@H]3C[C@@H]2C3(C)C)c(OC)c1 [HU308, {(1S,4S,5S)-4-[2,6-Dimethoxy-4-(2-methyloctan-2-yl)phenyl]-6,6-dimethylbicyclo[3.1.1]hept-2-en-2-yl}methanol, reference compound]	2.15 h	456 ng·kg·h/mL/mg					Vd (in vivo; [8]): 2.9 L/kg; clearance (in vivo; [8]): 36.6 mL/min/kg; logD ([2]; octanol/water, pH 7.4): 4.29; Ki (mouse CB2R [1]): 223 nM
CCCCCCC(C)(C)c1cc(OC)c(C2=C[C@H]3CC[C@]2(CO)C3(C)C)c(OC)c1 [HU910, {(1S,4R)-2-[2,6-dimethoxy-4-(2-methyloctan-2-yl)phenyl]-7,7-dimethylbicyclo[2.2.1]hept-2-en-1-yl}methanol, reference compound]			276 nM		4.1%		hCB1R cAMP EC50/hCB2R cAMP EC50 (human CB2R): >2500; LogD (at pH 7.4) [2]: out of range; hCB2R Ki/mouse CB2R Ki (mouse CB2R [1]): 0.2
Cc1nc([C@](C)(CC2CC2)NC(=O)c2cc(OCC(F)(F)F)c(C3CC3)cn2)no1 [RO6871085, 5-Cyclopropyl-N-[(2S)-1-cyclopropyl-2-(5-methyl-1,2,4-oxadiazol-3-yl)propan-2-yl]-4-(2,2,2-trifluoroethoxy)pyridine-2-carboxamide]				13	0.9%	6 nM	
CNC(=O)[C@@H](NC(=O)c1cc(OCC2(C)COC2)c(C2CC2)cn1)C(C)(C)C [RO6851228, 5-Cyclopropyl-N-[(2S)-3,3-dimethyl-1-(methylamino)-1-oxobutan-2-yl]-4-[(3-methyloxetan-3-yl)methoxy]pyridine-2-carboxamide]				45		1 nM	
